Blank lines part the entries; values can stand above or below the compound they belong to.
Key:
[1] = species on record: Homo sapiens; assay: Activity expressed by taste potency (taste intensity relative to sucrose on a mole/mole basis); type: functional
[2] = Evaluated for taste quality, NS means not sweet
[3] = species on record: Homo sapiens; assay: Taste quality; type: functional
[4] = The activity was expressed by the logarithm of the taste potency as measure of taste intensity relative to that of sucrose on a mole/mole basis;T = tasteless
[5] = Evaluated for taste quality,
[6] = The activity was expressed by the logarithm of the taste potency as measure of taste intensity relative to that of sucrose on a mole/mole basis; NI means not isolated
[7] = The activity was expressed by the logarithm of the taste potency as measure of taste intensity relative to that of sucrose on a mole/mole basis; I means insoluble

Compound: Nc1cc([N+](=O)[O-])ccc1O [2-AMINO-4-NITROPHENOL]
Log A [1]: 1.96

Compound: CCCc1ccc([N+](=O)[O-])cc1N
Log A [1]: 3.02

Compound: CC1(C2CC=C(/C=N/O)CC2)CO1 (centres undefined)
Log A [1]: 1.7

Compound: Nc1cc([N+](=O)[O-])ccc1Cl
Log A [1]: 2.31

Log sweet/bitter [2]: Not sweet
Compound: CC1CC=C(/C=N/O)C(C)O1 (centres undefined)
Log A [1]: 1

Compound: N#Cc1ccc(Cl)c(N)c1
Log A [1]: 2.13

Compound: CC(O)(CO)C1CC=C(/C=N/O)CC1 (centres undefined)
Log A [1]: 1.48
Log sweet/bitter [3]: -1.15

Compound: CCCOc1ccc([N+](=O)[O-])cc1N
Log A [1]: 3.46

Compound: O/N=C/C1=CCC=CC1
Log A [1]: 2.3

Compound: COc1ccc([N+](=O)[O-])cc1N
Log A [1]: 2.21

Compound: CC1CC=C(/C=N/O)CC1 (centres undefined)
Log A [1]: 2.4
Log sweet/bitter [3]: -0.1

Compound: COCC(C)(OC)C1CC=C(/C=N/O)CC1 (centres undefined)
Log A [1]: 1.7

Compound: COCC1=CCC(/C=N/O)=CC1
Log A [1]: 2.35
Log sweet/bitter [3]: 1.65

Compound: O/N=C/C1=COCCC1
Log A [1]: 0.48

Compound: COCC/C=C(C)/C=N/O
Log A [1]: 0.6

Compound: COC(C)C1CCC=C(/C=N/O)C1 (centres undefined)
Log A [1]: 1.45
Log sweet/bitter [3]: -1.4

Compound: C=CC1CC=C(/C=N/O)CC1 (centres undefined)
Log A [1]: 3.06
Log sweet/bitter [3]: 0.7

Compound: CCOC1CC=C(/C=N/O)CC1 (centres undefined)
Log A [1]: 1.2
Log sweet/bitter [3]: 0.21

Compound: CC1=CC=C(/C=N/O)CC1
Log A [1]: 2.18
Log sweet/bitter [3]: 0.23

Compound: O/N=C/C1=CCSCC1
Log A [1]: 1.3

Compound: N#Cc1cccc(N)c1
Log A [1]: 0.94

Compound: CO/N=C(/C)C1CC=C(/C=N/O)CC1 (centres undefined)
Log A [1]: 1.9

Compound: COC(C)C1=CCC(/C=N/O)=CC1 (centres undefined)
Log A [1]: 2.48
Log sweet/bitter [3]: 1.96

Compound: CC1=CCC(/C=N/O)=CC1
Log A [1]: 2.7
Log sweet/bitter [3]: 1.42

Compound: COCC1CC=C(/C=N/O)CC1 (centres undefined)
Log A [1]: 1.72
Log sweet/bitter [3]: 0.38

Compound: COCC1CC=C(/C=N/O)C1 (centres undefined)
Log A [1]: 1.38
Log sweet/bitter [3]: 0.64

Compound: O/N=C/C1=CCCOC1
Log A [1]: 0.3

Compound: COC(C)C1CC=C(/C=N/O)CC1 (centres undefined)
Log A [1]: 1.9
Log sweet/bitter [3]: 0.4

Compound: O/N=C/C1=CCOCC1
Log A [1]: 0.18

Log sweet/bitter [2]: Not sweet
Compound: O/N=C/C1=CC2C=CC1CC2 (centres undefined)
Log A [1]: 2.51

Log sweet/bitter [2]: Not sweet
Compound: COC(C)C1=CCC=C(/C=N/O)C1 (centres undefined)
Log A [1]: 1.96

Compound: O/N=C/C1=CC=CCC1
Log A [1]: 1.95

Compound: CC(=O)C1CC=C(/C=N/O)CC1 (centres undefined)
Log A [1]: 1.08
Log sweet/bitter [3]: 0.22

Compound: Nc1cccc([N+](=O)[O-])c1 [3-NITROANILINE]
Log A [1]: 1.21

Compound: COCC1CCC=C1/C=N/O (centres undefined)
Log A [1]: 1.52
Log sweet/bitter [3]: -0.12

Compound: CC(C)(OCC(=O)O)C1CC=C(/C=N/O)CC1 (centres undefined) [listing 1 of 2 here]
Log A [1]: 1.98
Log sweet/bitter [3]: 0.15

Compound: Cc1ccc([N+](=O)[O-])cc1N
Log A [1]: 2.17

Log sweet/bitter [2]: Not sweet
Compound: CC(C)(OCC(=O)O)C1CC=C(/C=N/O)CC1 (centres undefined) [listing 2 of 2 here]

Compound: Nc1cc([N+](=O)[O-])ccc1F
Log A [1]: 1.26

Compound: COCC(C)(O)C1CC=C(/C=N/O)CC1 (centres undefined)
Log A [1]: 0.6
Log sweet/bitter [3]: -1.05

Log A [4]: Tasteless
Compound: COCCC1CC=C(/C=N/O)CC1 (centres undefined)

Log sweet/bitter [5]: -0.66
Compound: CC(C)(O)C1CC=C(/C=N/O)CC1 (centres undefined)
Log A [1]: 0.9

Compound: Nc1cc([N+](=O)[O-])ccc1Br
Log A [1]: 2.71

Compound: CCCCOc1ccc([N+](=O)[O-])cc1N
Log A [1]: 2.79

Compound: COc1ccc(C#N)cc1N
Log A [1]: 1.89

Compound: CCOc1ccc(C#N)cc1N
Log A [1]: 2.63

Compound: COC1CC=C(/C=N/O)CC1 (centres undefined)
Log A [1]: 0.9
Log sweet/bitter [3]: 0.21

Compound: C=C(C)C1CC=C(/C=N/O)CC1 (centres undefined)
Log A [1]: 2.57
Log sweet/bitter [3]: 0.38

Log sweet/bitter [2]: Not sweet
Compound: COCC(OC)C1CC=C(/C=N/O)CC1 (centres undefined)
Log A [1]: 0.9

Compound: Nc1cc([N+](=O)[O-])ccc1I
Log A [1]: 2.98

Log A [6]: Not isolated
Compound: COCC1=CC=C(/C=N/O)CC1

Compound: O/N=C/C1=CCCCC1
Log A [1]: 1.74

Compound: CCOc1ccc([N+](=O)[O-])cc1N
Log A [1]: 2.87

Compound: N#Cc1ccc(Br)c(N)c1
Log A [1]: 2.46

Compound: CC(C)Oc1ccc([N+](=O)[O-])cc1N
Log A [1]: 2.54

Compound: COCCCC/C=C(C)/C=N/O
Log A [1]: 1.23

Compound: CC(C)(OCC(=O)[O-])C1CC=C(/C=N/O)CC1.[Na+] (centres undefined)
Log A [1]: 1

Log sweet/bitter [2]: Not sweet
Compound: COCC1=CCC=C(/C=N/O)C1
Log A [1]: 2.15

Log A [7]: Insoluble
Compound: COCCOCC1CC=C(/C=N/O)CC1 (centres undefined)

Compound: O/N=C/C1=CCCC1
Log A [1]: 1.74

Compound: COC(C)C1=CC=C(/C=N/O)CC1 (centres undefined)
Log A [1]: 2.13
Log sweet/bitter [3]: 0.97

Compound: C=COc1ccc([N+](=O)[O-])cc1N
Log A [1]: 3.06

Compound: COC(C)(CO)C1CC=C(/C=N/O)CC1 (centres undefined)
Log A [1]: 1.04
Log sweet/bitter [3]: -1.4

Compound: C/C=C(C)/C=N/O
Log A [1]: 1.6

Compound: C=C(C)/C=N/O
Log A [1]: 0.9

Compound: CCCOc1ccc(C#N)cc1N
Log A [1]: 3.11

Log sweet/bitter [2]: Not sweet
Compound: C/C(=N\O)C1=CCCCC1
Log A [1]: 2.61

Compound: C/C=C(C)/C(C)=N/O
Log A [1]: 2.15

Compound: C=CC1C=C(/C=N/O)CCC1 (centres undefined)
Log A [1]: 2.24
Log sweet/bitter [3]: -0.39

Compound: CC(C)C1=CCC(/C=N/O)=CC1
Log A [1]: 2.51
Log sweet/bitter [3]: -0.07
